PubChem BioAssay AID2305 (GlaxoSmithKline (GSK), 2010)

Test system: P. falciparum 3D7 growth, pLDH absorbance
Assay: blood-stage malaria parasite growth potency – strain 3D7, dose response (AID 2305)

Compound	IC50
Cc1cc(OC(C)C(=O)N2CCc3ccccc32)ccc1Cl (centres undefined)	790 nM
CC(C)N1CCN(c2ccc(OCCCCN3CCN(c4cccc(Cl)c4Cl)CC3)cc2Cl)CC1	1040 nM
CC[C@H]1CN2CC[C@H]1C[C@@H]2[C@@H](O)c1ccnc2ccc(OC)cc12	120 nM
Cc1ccc2c(=O)cc(CCc3cccc(F)c3F)n(CC(=O)N(Cc3ccc(-c4ccc(C(F)(F)F)cc4)cc3)C3CCN(C)CC3)c2n1	1260 nM
CCc1c(CCNCCCCCCNCc2ccc3c(c2CC)OCO3)ccc(OC)c1OC	250 nM
COc1ccc2ncc(F)c(CCN3C[C@H](CNCc4ccc(F)cc4)[C@H](O)C3)c2n1	820 nM
COc1ccc(N2CCN(CCCCNC(=O)c3ccc(NC(=O)c4cc(C(F)(F)F)cc(C(F)(F)F)c4)cc3)CC2)cc1OC	220 nM
CCN1CCN(CC(O)CNC(=O)Nc2ccc(Cl)cc2)CC1 (centres undefined)	150 nM
COc1ccc2c(NN=Cc3ccccc3[N+](=O)[O-])cc(C)nc2c1	720 nM
COC(=O)C(C)NCC(=O)c1ccccc1 (centres undefined)	120 nM
COc1ccc(Cl)cc1N1CCN(CCCNC(=O)c2ccc(-c3nc4ccc(C(F)(F)F)cc4[nH]3)c(C)c2)CC1	760 nM
C=CCOc1ccccc1CNCC(O)c1cc(Br)cs1 (centres undefined)	330 nM
CC(Cc1ccc(OCc2ccccc2)c(Cl)c1)NCC(O)c1cccc(C(F)(F)F)c1 (centres undefined)	940 nM
Nc1nc(N)c2c(ccc3c2ccn3Cc2ccc(OCc3ccccc3)cc2)n1	930 nM
CCS(=O)(=O)N1CCN(c2nc(-c3ccccc3)nc(COC)c2Cc2ccccc2F)CC1	1450 nM
CCCCNCc1ccc(-c2nc(CN(CCCN3CCN(C)CC3)C(=O)Nc3cccc(Cl)c3)cs2)cc1	970 nM
Cc1cccc2[nH]c(-c3ccc(-c4ccc(CN5CCCC5CN)cc4)cc3)nc12 (centres undefined)	810 nM
CCCCCC1c2[nH]c3ccccc3c2CCN1C(=O)OCc1ccccc1 (centres undefined)	390 nM
COc1cc2nc(N3CCC(CNC(=O)c4ccc(-c5ccc(C(=O)N(C)C)cc5O)cc4)CC3)nc(N)c2cc1OC	280 nM
O=C(/C=C/c1ccc(Cl)c(Cl)c1)N1CCC(CN2CCC(c3cn(CC(=O)N4CCCCC4)c4ccccc34)CC2)CC1	750 nM
COc1ccc(NC(=O)c2cc(NC(=O)C3(N)CC3)c(=O)n(Cc3ccc(C(N)=O)cc3)c2)cc1	790 nM
CCCCC(NCC)c1ccc(OCCOc2ccc(C(CCCC)NCC)cc2)cc1 (centres undefined)	930 nM
Nc1ccc(-c2ccc(NC(=O)Nc3cc(C(F)(F)F)ccc3F)cc2)cn1	660 nM

Compound	IC50
Cc1nc2ccc(/C=C/C(=O)NC3CCC(CCN4CCc5ccc(C#N)cc5CC4)CC3)cc2[nH]1 (centres undefined)	1140 nM
COc1cccc(NC(=O)Cn2c(C)c(C(=O)C(F)(F)F)c3ccccc32)c1	830 nM
CS(=O)(=O)c1ccccc1CNC(=O)c1ccc(-c2cccc(-c3nc4ccc(C(F)(F)F)cc4[nH]3)c2)cc1	870 nM
CCCCCN1C(=O)C(c2ccccc2)(c2ccccc2)N=C1N	790 nM
COc1ccc(CN=C(N)Nc2nc(-c3ccc(OCCCn4ccnc4)cc3)cs2)cc1	390 nM
CCOc1ccc(C2CCN(CCN3CCC(NC(=O)c4ccc(-c5ccc(C(F)(F)F)cc5)cc4)CC3)CC2)c(OCC2CC2)c1	830 nM
CN(C)CC(=O)Nc1ccc(-c2ccc3ccnc(N)c3c2)cc1	30 nM
O=C(Nc1ccc(Oc2ccccc2)cc1)N1CCC(CCN2CCC(c3c[nH]c4ccccc34)CC2)CC1	800 nM
CN1CCC(NCCS(=O)(=O)c2cccc(Nc3ccc(-c4cccc(F)c4)cn3)c2)CC1	1360 nM
COc1cc(NC(=O)c2nn(CCCN3CCC(N4CCCC4)CC3)cc2-c2ccc(Cl)c(Cl)c2)cc(OC)c1OC	560 nM
O=C(CCc1ccco1)NC1CCN(CC2(c3ccc(Cl)cc3)CCC2)CC1	1450 nM
O=C(COc1cccc([N+](=O)[O-])c1)Nc1ccc(-c2nc3ccccc3[nH]2)cc1	750 nM
CC(=O)N1N=C(c2ccc(Cl)cc2)Sc2c1nc(-c1ccccc1)n2C(C)=O	490 nM
c1cc(CN2CCCCC2)cc(-c2cccc(-c3nc4ccccc4[nH]3)c2)c1	830 nM
CCCN(C(=O)c1ccccc1C)c1nnc(-c2cccc(C)c2)s1	900 nM
COc1cc2c(OC)cccc2cc1CNCCCCCCNCc1cc2cccc(OC)c2cc1OC	820 nM
COc1cc(C)cc(CN2CCC(Cc3ccccc3)CC2)c1O	1020 nM
CCOC(=O)c1ccc(OCc2ccc(-c3ccccc3)cc2)cc1	810 nM
Cc1ccc(Nc2nc(C)cc(NC3CC3)n2)cc1	1220 nM
Cc1cccc2[nH]c(-c3ccc(-c4ccc(CN5CCCC(N)C5)cc4)cc3)nc12 (centres undefined)	350 nM
COc1cccc(C(NC(=O)c2ccccc2)c2ccc3cccnc3c2O)c1 (centres undefined)	1080 nM
O=C(/C=C/c1ccc(Cl)c(Cl)c1)N(Cc1ccccc1)C1CCC(CN2CCC(c3c[nH]c4ccccc34)CC2)CC1 (centres undefined)	210 nM
O=C(Nc1ccc(Cl)cc1)Nc1cccc(-c2cccc(-c3nc4ccccc4[nH]3)c2)c1	130 nM

Compound	IC50
CCN1CCN(CCCCNc2c3ccccc3nc3ccccc23)CC1	860 nM
O=C(NC1CCN(Cc2ccccc2)CC1)c1cc(-c2ccncc2)nc2ccc(Cl)cc12	920 nM
Cc1noc(C)c1-c1cccc(CNCc2ccc(-c3ccc(-c4nc5ccc(F)cc5[nH]4)cc3)cc2)c1	210 nM
O=S(=O)(NCCN1CCCC1)c1ccc(-c2ccc(CNCc3ccsc3)cc2)cc1	850 nM
CCOC(=O)N/N=C/[C@H](CCc1ccccc1)NC(=O)[C@H](CC(C)C)NC(=O)c1cc2cccc(OC)c2o1	880 nM
O=C(/C=C/c1ccc(Cl)c(Cl)c1)NCCCCCN1CCCN(C(=O)Nc2ccc([N+](=O)[O-])cc2)CC1	620 nM
COc1cc(OC)cc(-c2nn(-c3ccc([N+](=O)[O-])cc3Cl)c(=S)n2Cc2ccco2)c1	840 nM
NC1CCN(c2nc(NCCCc3ccc(O)cc3)nc(NCc3ccccc3-c3ccc(C(F)(F)F)cc3)n2)CC1	730 nM
CN=C(NC)c1cccc(NC(=O)C=Cc2ccc(C=CC(=O)Nc3cccc(C(=NC)NC)c3)cc2)c1	160 nM
COc1ccccc1NC(=O)Nc1cccc(-c2ccc(-c3nc4ccc(C(F)(F)F)cc4[nH]3)cc2)c1	310 nM
CN1CCN(c2ccc(Nc3ncc(C#N)c(Nc4ccccc4C(N)=O)n3)cc2)CC1	40 nM
Cc1ccc(CN2CCCN(Cc3cccc(NC(=O)c4cc5ccccc5s4)c3)CC2)cc1	1190 nM
c1ccc2[nH]c(-c3ccc(-c4ccc(CN5CCC(N6CCCCC6)CC5)cc4)s3)nc2c1	150 nM
C=CCOc1cccc2c1CCN(CCN1CCC(NC(=O)c3ccc(-c4ccc(Cl)cc4)cc3)CC1)C2	670 nM
Cc1cc(N(C)C)nc(Nc2ccc(NC(=O)c3ccccc3C)cc2)n1	1130 nM
Clc1ccc(CNc2ccnc(NCCc3coc4ccccc34)n2)c(Cl)c1	1170 nM
COc1ccc(-n2ccnc2)cc1CNC1CCN(CC2Cn3c(=O)ccc4ccc(F)c2c43)CC1 (centres undefined)	930 nM
Cc1cnc(N2CCN(CCCN3CCCC3)CC2)nc1Oc1ccc(-n2ccnc2)cc1	900 nM
FC(F)(F)c1ccc(NC(=S)N2CCC(CN3CCC(c4c[nH]c5ccccc45)CC3)CC2)cc1	660 nM
O=C(c1c(-c2[nH]c3ccccc3c2C(=O)C(F)(F)F)[nH]c2ccccc12)C(F)(F)F	750 nM
CCc1cn(CCS(C)(=O)=O)c2ccc(C(=O)N[C@@H](Cc3ccccc3)[C@H](O)CNC(C)(C)CCCC(C)C)cc12	880 nM
O=C(/C=C/c1ccc(Cl)c(Cl)c1)NCCCCCN1CCC(NC(=O)Nc2ccccc2Cl)CC1	710 nM
O=C1CCCN1CCCNCc1cccc(-c2cccc(-c3nc4ccc(C(F)(F)F)cc4[nH]3)c2)c1	300 nM
